Measurements as given in patent US20240208992A1, “MACROCYCLES AS CFTR MODULATORS” (Idorsia Pharmaceuticals Ltd, priority 2021, published 2024).

Target: human F508del-CFTR (Homo sapiens, UniProt P13569, DEL508-508)
Experiment: F508del-CFTR cell surface expression (corrector activity), DiscoveRx ß-galactosidase complementation chemiluminescence assay in recombinant U2OS cell line;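 further: U2OS cells co-expressing ProLink-tagged F508del-CFTR and a membrane-anchored enzyme acceptor, where more surface CFTR restores β-galactosidase activity measured by chemiluminescence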
Conditions: U2OS cells, 16h compound incubation; for EC50: EC50, F508del-CFTR cell surface expression, geomean of several measurements; for Emax: U2OS, in relation to the Emax of the corrector lumacaftor (=100%), arithmetic mean

Sequence of human F508del-CFTR (P13569 with tags, fused parts or gaps DEL508-508): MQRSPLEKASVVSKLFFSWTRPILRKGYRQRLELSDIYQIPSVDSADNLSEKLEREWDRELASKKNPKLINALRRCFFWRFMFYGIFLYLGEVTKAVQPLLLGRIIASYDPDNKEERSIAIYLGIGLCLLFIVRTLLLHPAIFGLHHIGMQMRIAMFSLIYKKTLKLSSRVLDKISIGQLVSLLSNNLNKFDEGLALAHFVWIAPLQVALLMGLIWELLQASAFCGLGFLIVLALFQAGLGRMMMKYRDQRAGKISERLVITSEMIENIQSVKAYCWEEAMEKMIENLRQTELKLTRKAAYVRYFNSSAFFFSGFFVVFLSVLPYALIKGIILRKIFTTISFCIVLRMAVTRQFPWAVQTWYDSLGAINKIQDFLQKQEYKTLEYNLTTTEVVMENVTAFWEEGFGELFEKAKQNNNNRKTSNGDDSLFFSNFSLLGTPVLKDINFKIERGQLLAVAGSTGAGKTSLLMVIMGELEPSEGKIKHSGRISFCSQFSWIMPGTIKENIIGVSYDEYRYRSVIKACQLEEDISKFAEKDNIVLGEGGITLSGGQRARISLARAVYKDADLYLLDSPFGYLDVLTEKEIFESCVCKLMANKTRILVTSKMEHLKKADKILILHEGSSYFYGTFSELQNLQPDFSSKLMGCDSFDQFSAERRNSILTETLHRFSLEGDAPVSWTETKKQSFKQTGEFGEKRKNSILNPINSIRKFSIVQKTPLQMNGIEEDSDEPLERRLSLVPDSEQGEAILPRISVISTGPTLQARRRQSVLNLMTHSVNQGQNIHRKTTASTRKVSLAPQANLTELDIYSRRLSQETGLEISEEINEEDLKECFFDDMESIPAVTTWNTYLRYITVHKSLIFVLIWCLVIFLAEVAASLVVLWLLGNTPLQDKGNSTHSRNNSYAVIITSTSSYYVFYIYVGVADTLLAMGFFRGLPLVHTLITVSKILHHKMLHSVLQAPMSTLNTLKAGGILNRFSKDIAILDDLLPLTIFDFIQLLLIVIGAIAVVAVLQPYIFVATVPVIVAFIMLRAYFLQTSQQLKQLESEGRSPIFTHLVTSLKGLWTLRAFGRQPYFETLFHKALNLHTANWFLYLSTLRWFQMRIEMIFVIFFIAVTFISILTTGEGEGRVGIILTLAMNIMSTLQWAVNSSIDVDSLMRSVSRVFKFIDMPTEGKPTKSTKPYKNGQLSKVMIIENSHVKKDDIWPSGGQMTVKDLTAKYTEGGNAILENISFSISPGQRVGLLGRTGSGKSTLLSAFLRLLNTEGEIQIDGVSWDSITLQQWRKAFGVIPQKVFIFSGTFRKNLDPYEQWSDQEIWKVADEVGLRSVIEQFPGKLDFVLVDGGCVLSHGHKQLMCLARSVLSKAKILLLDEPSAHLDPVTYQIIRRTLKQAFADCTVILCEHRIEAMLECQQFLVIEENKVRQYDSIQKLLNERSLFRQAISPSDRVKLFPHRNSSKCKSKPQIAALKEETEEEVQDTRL

Compound	EC50	Emax
COc1cc(CCNC(=O)[C@@H]2CC(=O)N(C)[C@@H](CC(C)C)C(=O)N(C)[C@]3(C[C@H](OC)C3)C(=O)N[C@H](Cc3ccccc3)COc3ccc4ncc(F)cc4c3C(=O)N2)on1 [Example 926, (1r,3S,3′S,7′S,13′R)-13′-benzyl-20′-fluoro-7′-isobutyl-3-methoxy-N-(2-(3-methoxyisoxazol-5-yl)ethyl)-6′,9′-dimethyl-1′,5′,8′,11′-tetraoxo-2′,3′,4′,5′,6′,7′,8′,9′,11′,12′,13′,14′-dodecahydro-1′H-spiro[cyclobutane-1,10′-[1]oxa[4,7,10,14]tetraazacycloheptadecino[16,17-f]quinoline]-3′-carboxamide]	759 nM	416%
COc1noc(CCNC(=O)[C@@H]2CC(=O)N(C)[C@@H](CC(C)C)C(=O)N(C)[C@H](Cc3nc(C(F)(F)F)no3)C(=O)N[C@H](Cc3ccccc3)COc3cc(C)c4ncccc4c3C(=O)N2)n1 [Example 927, (3S,7S,10R,13R)-13-benzyl-7-isobutyl-N-(2-(3-methoxy-1,2,4-oxadiazol-5-yl)ethyl)-6,9,17-trimethyl-1,5,8,11-tetraoxo-10-((3-(trifluoromethyl)-1,2,4-oxadiazol-5-yl)methyl)-1,2,3,4,5,6,7,8,9,10,11,12,13,14-tetradecahydro-[1]oxa[4,7,10,14]tetraazacycloheptadecino[16,17-f]quinoline-3-carboxamide]	27 nM	492%
Cc1cc2c(c3cccnc13)C(=O)N[C@H](C(=O)NCCn1nnc(C3CC3)n1)CC(=O)N(C)[C@@H](CC(C)C)C(=O)N1CCCCC1C(=O)N[C@H](Cc1ccccc1)CO2 (stereo partly drawn) [Example 928, (9S,13S,19aS,22R)-22-benzyl-N-(2-(5-cyclopropyl-2H-tetrazol-2-yl)ethyl)-13-isobutyl-2,12-dimethyl-7,11,14,20-tetraoxo-7,8,9,10,11,12,13,14,17,18,19,19a,20,21,22,23-hexadecahydro-16H-pyrido[2′,1′:6,7][1]oxa[4,7,10,14]tetraazacycloheptadecino[16,17-f]quinoline-9-carboxamide]	971 nM	247%
CCOCC[C@@H]1C(=O)N[C@H](Cc2ccccc2)COc2ccc3ncc(F)cc3c2C(=O)N[C@H](C(=O)NCCc2nc(OC)no2)CC(=O)N(C)[C@@H](CC(C)C)C(=O)N1C [Example 929, (3S,7S,10R,13R)-13-benzyl-10-(2-ethoxyethyl)-20-fluoro-7-isobutyl-N-(2-(3-methoxy-1,2,4-oxadiazol-5-yl)ethyl)-6,9-dimethyl-1,5,8,11-tetraoxo-1,2,3,4,5,6,7,8,9,10,11,12,13,14-tetradecahydro-[1]oxa[4,7,10,14]tetraazacycloheptadecino[16,17-f]quinoline-3-carboxamide]	306 nM	513%
COc1noc(CCNC(=O)[C@@H]2CC(=O)N(C)[C@@H](CC(C)C)C(=O)N3CCCC[C@@H]3C(=O)N[C@H](Cc3ccccc3)COc3cnc4ccc(F)cc4c3C(=O)N2)n1 [Example 930, (9S,13S,19aR,22R)-22-benzyl-5-fluoro-13-isobutyl-N-(2-(3-methoxy-1,2,4-oxadiazol-5-yl)ethyl)-12-methyl-7,11,14,20-tetraoxo-7,8,9,10,11,12,13,14,17,18,19,19a,20,21,22,23-hexadecahydro-16H-pyrido[2′,1′:6,7][1]oxa[4,7,10,14]tetraazacycloheptadecino[17,16-c]quinoline-9-carboxamide]	142 nM	460%
COc1cc(CCNC(=O)[C@@H]2CC(=O)N(C)[C@@H](CC(C)C)C(=O)N(C)[C@H](CC(F)F)C(=O)N[C@H](Cc3ccccc3)COc3ccc4cnc(C)cc4c3C(=O)N2)on1 [Example 931, (3S,7S,10R,13R)-13-benzyl-10-(2,2-difluoroethyl)-7-isobutyl-N-(2-(3-methoxyisoxazol-5-yl)ethyl)-6,9,20-trimethyl-1,5,8,11-tetraoxo-1,2,3,4,5,6,7,8,9,10,11,12,13,14-tetradecahydro-[1]oxa[4,7,10,14]tetraazacycloheptadecino[16,17-f]isoquinoline-3-carboxamide]	298 nM	507%
COc1noc(CCNC(=O)[C@@H]2CC(=O)N(C)[C@@H](CC(C)C)C(=O)N(C)[C@H](CC(F)F)C(=O)N[C@H](Cc3ccccc3)COc3ccc4cnc(C)cc4c3C(=O)N2)n1 [Example 932, (3S,7S,10R,13R)-13-benzyl-10-(2,2-difluoroethyl)-7-isobutyl-N-(2-(3-methoxy-1,2,4-oxadiazol-5-yl)ethyl)-6,9,20-trimethyl-1,5,8,11-tetraoxo-1,2,3,4,5,6,7,8,9,10,11,12,13,14-tetradecahydro-[1]oxa[4,7,10,14]tetraazacycloheptadecino[16,17-f]isoquinoline-3-carboxamide]	373 nM	491%
Cc1cc2c3c(ccc2cn1)OC[C@@H](Cc1ccccc1)NC(=O)[C@@H](CC(F)F)N(C)C(=O)[C@H](CC(C)C)N(C)C(=O)C[C@@H](C(=O)NCCn1nnc(C2CC2)n1)NC3=O [Example 933, (3S,7S,10R,13R)-13-benzyl-N-(2-(5-cyclopropyl-2H-tetrazol-2-yl)ethyl)-10-(2,2-difluoroethyl)-7-isobutyl-6,9,20-trimethyl-1,5,8,11-tetraoxo-1,2,3,4,5,6,7,8,9,10,11,12,13,14-tetradecahydro-[1]oxa[4,7,10,14]tetraazacycloheptadecino[16,17-f]isoquinoline-3-carboxamide]	399 nM	485%
COc1noc(CCNC(=O)[C@@H]2CC(=O)N(C)[C@@H](CC(C)C)C(=O)N(C)[C@H](Cc3nc(C(F)(F)F)no3)C(=O)N[C@H](Cc3ccccc3)COc3ccc4ncc(F)cc4c3C(=O)N2)n1 [Example 934, (3S,7S,10R,13R)-13-benzyl-20-fluoro-7-isobutyl-N-(2-(3-methoxy-1,2,4-oxadiazol-5-yl)ethyl)-6,9-dimethyl-1,5,8,11-tetraoxo-10-((3-(trifluoromethyl)-1,2,4-oxadiazol-5-yl)methyl)-1,2,3,4,5,6,7,8,9,10,11,12,13,14-tetradecahydro-[1]oxa[4,7,10,14]tetraazacycloheptadecino[16,17-f]quinoline-3-carboxamide]	37 nM	528%
Cc1cc2c(c3cccnc13)C(=O)N[C@H](C(=O)NCCc1noc(C3CC3)n1)CC(=O)N(C)[C@@H](CC(C)C)C(=O)N(C)[C@H](Cc1nc(C(F)(F)F)no1)C(=O)N[C@H](Cc1ccccc1)CO2 [Example 935, (3S,7S,10R,13R)-13-benzyl-N-(2-(5-cyclopropyl-1,2,4-oxadiazol-3-yl)ethyl)-7-isobutyl-6,9,17-trimethyl-1,5,8,11-tetraoxo-10-((3-(trifluoromethyl)-1,2,4-oxadiazol-5-yl)methyl)-1,2,3,4,5,6,7,8,9,10,11,12,13,14-tetradecahydro-[1]oxa[4,7,10,14]tetraazacycloheptadecino[16,17-f]quinoline-3-carboxamide]	24 nM	496%
Cc1cc2c(c3cccnc13)C(=O)N[C@H](C(=O)NCCc1nc(C3CC3)no1)CC(=O)N(C)[C@@H](CC(C)C)C(=O)N(C)[C@H](Cc1nc(C(F)(F)F)no1)C(=O)N[C@H](Cc1ccccc1)CO2 [Example 936, (3S,7S,10R,13R)-13-benzyl-N-(2-(3-cyclopropyl-1,2,4-oxadiazol-5-yl)ethyl)-7-isobutyl-6,9,17-trimethyl-1,5,8,11-tetraoxo-10-((3-(trifluoromethyl)-1,2,4-oxadiazol-5-yl)methyl)-1,2,3,4,5,6,7,8,9,10,11,12,13,14-tetradecahydro-[1]oxa[4,7,10,14]tetraazacycloheptadecino[16,17-f]quinoline-3-carboxamide]	26 nM	469%
CC(C)C[C@H]1C(=O)N(C)[C@H](Cc2nc(C(F)(F)F)no2)C(=O)N[C@H](Cc2ccccc2)COc2ccc3ncc(F)cc3c2C(=O)N[C@H](C(=O)NCCn2nc3ccccc3n2)CC(=O)N1C [Example 937, (3S,7S,10R,13R)-N-(2-(2H-benzo[d][1,2,3]triazol-2-yl)ethyl)-13-benzyl-20-fluoro-7-isobutyl-6,9-dimethyl-1,5,8,11-tetraoxo-10-((3-(trifluoromethyl)-1,2,4-oxadiazol-5-yl)methyl)-1,2,3,4,5,6,7,8,9,10,11,12,13,14-tetradecahydro-[1]oxa[4,7,10,14]tetraazacycloheptadecino[16,17-f]quinoline-3-carboxamide]	59 nM	460%
COc1noc(CCNC(=O)[C@@H]2CC(=O)N(C)[C@@H](CC(C)C)C(=O)N(C)[C@H](CC(F)(F)F)C(=O)N[C@H](Cc3ccccc3)COc3ccc4cnc(C)cc4c3C(=O)N2)n1 [Example 938, (3S,7S,10R,13R)-13-benzyl-7-isobutyl-N-(2-(3-methoxy-1,2,4-oxadiazol-5-yl)ethyl)-6,9,20-trimethyl-1,5,8,11-tetraoxo-10-(2,2,2-trifluoroethyl)-1,2,3,4,5,6,7,8,9,10,11,12,13,14-tetradecahydro-[1]oxa[4,7,10,14]tetraazacycloheptadecino[16,17-f]isoquinoline-3-carboxamide]	245 nM	498%
COc1noc(CCNC(=O)[C@@H]2CC(=O)N(C)[C@@H](CC(C)C)C(=O)N(C)[C@@H](CC(F)(F)F)C(=O)N[C@H](Cc3ccccc3)COc3ccc4cnc(C)cc4c3C(=O)N2)n1 [Example 939, (3S,7S,10S,13R)-13-benzyl-7-isobutyl-N-(2-(3-methoxy-1,2,4-oxadiazol-5-yl)ethyl)-6,9,20-trimethyl-1,5,8,11-tetraoxo-10-(2,2,2-trifluoroethyl)-1,2,3,4,5,6,7,8,9,10,11,12,13,14-tetradecahydro-[1]oxa[4,7,10,14]tetraazacycloheptadecino[16,17-f]isoquinoline-3-carboxamide]	737 nM	288%
